Measurements taken from PMC3871636 (PLoS ONE, 2013).
Structures can show the parent of a compound that is named as a salt.

Assays:
[1] = target: double-labeled CYP3A4 C64/C121-DY/ER (Homo sapiens, UniProt P08684, A121C/C239S/C377S/C468A/C98S/S18F); experiment: Steady-state LRET titration (delayed emission); details: Table S2, protein C64/C121-ER/DY; for R (interprobe distance with ligand), steady-state measurements / ΔR, steady-state measurements: same ligand concentrations
Description: (§1) All absorbance and fluorescence assays (including the time-resolved fluorescence measurements) were performed at a protein concentration ≤1 µM at 25°C with continuous stirring. Absorbance spectra were recorded with an S2000 rapid scanning CCD spectrometer (Ocean Optics). Ligand binding assays were done in 100 mM Na-Hepes buffer, pH 7.4, containing 0.5 mM EDTA.
Fluorescence-based ligand binding assays were done under anaerobic conditions. Anaerobiosis was achieved using an oxygen-scavenging system consisting of protecatechuate-3,4-dioxygenase (0.5 units/ml) and 5 mM protocatechuic acid. The steady state and time-resolved phosphorescence measurements were performed with the use of a Cary Eclipse fluorescence spectrophotometer (Varian/Agilent Technologies). The excitation wavelength was set to 540 nm. Spectra were taken from 650 to 860 nm with 100 µs delay.
Quantitative interpretation of LRET results was also based on the use of PCA applied to a series of emission spectra normalized on integral intensity. […] Intensity of the donor and acceptor fluorescence obtained in this way were used in determination of the efficiency of steady-state LRET using the equation [drawing 1] (Eq.1) where I ad is emission intensity of the acceptor, I da is the residual donor emission in the presence of acceptor (I da), Φ a and Φ d are the quantum yield of the fluorescence of acceptor and the quantum yield of the phosphorescence of donor, respectively.
Distances were calculated using the equation: [drawing 3] (Eq.3) where R 0 is the Förster distance, and R is the distance between the donor and acceptor. R 0 was calculated with the use of PhotoChemCad software. In these calculations, we used the values of the orientation factor (κ^2) and the refractive index (n) of 0.667 and 1.4, respectively.
(§2) When fitting the results of titration experiments, where the changes in the monitored signal A S (fraction of the enzyme in the high-spin state, intensity or the lifetime of the donor phosphorescence at a given substrate concentration) were assumed to be proportional to [ES], this equation was complemented with the offset A 0 and the scaling factor A max to yield the following relationship: [drawing 5] (Eq.5)

[2] = target: wild type CYP3A4 (N-terminally truncated Δ3-12, S18F) (Homo sapiens, UniProt P08684, S18F); experiment: Ligand-induced spin shift, absorbance titration
Description: as §1
(§3) Absorbance spectra obtained in titration experiments were analyzed with a principal component analysis (PCA) procedure complemented with least-square approximation of the principal vectors with a combination of the prototypical spectra of the CYP3A4 low-spin, high-spin and Type II-substrate-bound ferric CYP3A4 P450 states as described, [31].
as §2

CYP3A4(C64/C121) mutant = CYP3A4(C64/C121) mutant (Homo sapiens, UniProt P08684, A121C/C239S/C377S/C468A/C98S/S18F); experiment: Ligand-induced spin shift, absorbance titration
Description: as §1, §3, §2

[3] = target: double-labeled CYP3A4 C64/C468-ER/DY (Homo sapiens, UniProt P08684, S18F, form not given); experiment: Ligand-induced spin shift, absorbance titration; format: binding; details: (C64/C468)-ER/DY
Description: as §1, §3, §2

CYP3A4(C377/C468) mutant = CYP3A4(C377/C468) mutant (Homo sapiens, UniProt P08684, S18F, form not given); experiment: Ligand-induced spin shift, absorbance titration; format: binding; details: C377/C468
Description: as §1, §3, §2

[4] = target: CYP3A4 (C377/C468 mutant) (Homo sapiens, UniProt P08684, form not given/S18F); experiment: Ligand-induced spin shift, absorbance titration; format: binding; details: human, purified CYP3A4(C377/C468) mutant protein, pH 7.4; read-out: K D or S 50
Description: as §1, §3, §2

CYP3A4 (C64/C468 mutant) = CYP3A4 (C64/C468 mutant) (Homo sapiens, UniProt P08684, form not given/S18F); experiment: Ligand-induced spin shift, absorbance titration; format: binding; details: human, purified CYP3A4(C64/C468) mutant protein, pH 7.4; read-out: K D or S 50
Description: as §1, §3, §2

[5] = target: CYP3A4 (double-labeled C64/C468-ER/DY) (Homo sapiens, UniProt P08684, form not given/S18F); experiment: Ligand-induced spin shift, absorbance titration; format: binding; details: human, purified double-labeled CYP3A4 C64/C468-ER/DY protein, pH 7.4; read-out: K D or S 50
Description: as §1, §3, §2

CYP3A4(C64/C468) mutant = CYP3A4(C64/C468) mutant (Homo sapiens, UniProt P08684, S18F, form not given); experiment: Ligand-induced spin shift, absorbance titration; format: binding; details: C64/C468
Description: as §1, §3, §2

[6] = target: CYP3A4 (double-labeled (C64/C468)-ER/DY) (Homo sapiens, UniProt P08684, form not given/S18F); experiment: Steady-state LRET titration (delayed emission); format: binding; details: human, purified double-labeled CYP3A4 (C64/C468)-ER/DY protein, pH 7.4; (C64/C468)-ER/DY; LRET titration; read-out: K d, steady-state fluorescence
Procedure, shortened: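 Protein at ≤1 µM, 25°C, stirred, in 100 mM Na-Hepes pH 7.4 with 0.5 mM EDTA, kept anaerobic with a protocatechuate-3,4-dioxygenase/protocatechuic acid scavenger. Delayed emission (100 µs delay) recorded from 650 to 860 nm at 540 nm excitation, with PCA-resolved donor/acceptor intensities giving LRET efficiency and distances (κ² 0.667, n 1.4). Titration signals fitted to a binding equation with offset and scaling terms.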

[7] = target: double-labeled CYP3A4 C64/C468-DY/ER (Homo sapiens, UniProt P08684, S18F, form not given); experiment: Ligand-induced spin shift, absorbance titration; format: binding; details: (C64/C468)-DY/ER
Description: as §1, §3, §2

[8] = target: CYP3A4 (double-labeled C64/C468-DY/ER) (Homo sapiens, UniProt P08684, form not given/S18F); experiment: Ligand-induced spin shift, absorbance titration; format: binding; details: human, purified double-labeled CYP3A4 C64/C468-DY/ER protein, pH 7.4; read-out: K D or S 50
Description: as §1, §3, §2

[9] = target: CYP3A4 (double-labeled C377/C468-DY/ER) (Homo sapiens, UniProt P08684, form not given/S18F); experiment: Ligand-induced spin shift, absorbance titration; format: binding; details: purified double-labeled CYP3A4 C377/C468-DY/ER protein, pH 7.4, read-out: K D or S 50
Description: as §1, §3, §2

Chain of wild type CYP3A4 (N-terminally truncated Δ3-12, S18F) (P08684 with tags, fused parts or gaps S18F): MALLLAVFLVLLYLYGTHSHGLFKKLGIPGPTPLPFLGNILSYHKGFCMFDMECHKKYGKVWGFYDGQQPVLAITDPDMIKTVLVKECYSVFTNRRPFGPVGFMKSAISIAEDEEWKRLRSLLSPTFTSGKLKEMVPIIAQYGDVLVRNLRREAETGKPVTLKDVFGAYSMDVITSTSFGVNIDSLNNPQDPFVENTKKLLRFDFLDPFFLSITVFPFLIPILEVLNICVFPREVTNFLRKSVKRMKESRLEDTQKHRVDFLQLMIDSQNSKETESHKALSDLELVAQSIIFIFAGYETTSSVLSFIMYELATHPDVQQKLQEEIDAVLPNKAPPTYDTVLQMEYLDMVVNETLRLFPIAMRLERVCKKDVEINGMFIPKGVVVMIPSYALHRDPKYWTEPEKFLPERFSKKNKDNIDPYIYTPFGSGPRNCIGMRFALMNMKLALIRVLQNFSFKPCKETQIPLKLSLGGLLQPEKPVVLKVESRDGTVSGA
Chain of CYP3A4(C64/C121) mutant (P08684 with tags, fused parts or gaps S18F/C98S/A121C/C239S/C377S/C468A limits assumed): as the sequence (P08684 with tags, fused parts or gaps S18F) above, with C88S, A111C, C229S, C367S, C458A counted along it
Chain of double-labeled CYP3A4 C64/C121-DY/ER (P08684 with tags, fused parts or gaps S18F/C98S/A121C/C239S/C377S/C468A limits assumed): as the sequence (P08684 with tags, fused parts or gaps S18F) above, with C88S, A111C, C229S, C367S, C458A counted along it
Chain of CYP3A4 (C64/C468 mutant) (P08684 13-503 S18F, form open): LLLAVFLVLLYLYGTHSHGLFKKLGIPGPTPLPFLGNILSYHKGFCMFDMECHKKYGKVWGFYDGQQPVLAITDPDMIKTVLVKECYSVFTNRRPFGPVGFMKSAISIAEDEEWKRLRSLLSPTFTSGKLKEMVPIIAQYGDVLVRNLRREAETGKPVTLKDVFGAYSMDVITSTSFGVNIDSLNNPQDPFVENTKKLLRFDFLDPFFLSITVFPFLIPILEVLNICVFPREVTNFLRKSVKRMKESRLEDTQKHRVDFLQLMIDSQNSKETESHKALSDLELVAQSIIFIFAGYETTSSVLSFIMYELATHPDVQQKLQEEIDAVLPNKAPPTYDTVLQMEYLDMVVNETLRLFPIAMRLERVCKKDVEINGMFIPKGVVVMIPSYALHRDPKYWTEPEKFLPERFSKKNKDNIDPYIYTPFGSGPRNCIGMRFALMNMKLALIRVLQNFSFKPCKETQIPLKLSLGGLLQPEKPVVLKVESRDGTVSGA
Chain of CYP3A4(C64/C468) mutant (P08684 13-503 S18F, form open): as above
Chain of CYP3A4(C377/C468) mutant (P08684 13-503 S18F, form open): as above
Chain of CYP3A4 (C377/C468 mutant) (P08684 13-503 S18F, form open): as above
Chain of CYP3A4 (double-labeled C64/C468-ER/DY) (P08684 13-503 S18F, form open): as above
Chain of double-labeled CYP3A4 C64/C468-DY/ER (P08684 13-503 S18F, form open): as above
Chain of double-labeled CYP3A4 C64/C468-ER/DY (P08684 13-503 S18F, form open): as above
Chain of CYP3A4 (double-labeled C377/C468-DY/ER) (P08684 13-503 S18F, form open): as above
Chain of CYP3A4 (double-labeled (C64/C468)-ER/DY) (P08684 13-503 S18F, form open): as above
Chain of CYP3A4 (double-labeled C64/C468-DY/ER) (P08684 13-503 S18F, form open): as above

| SMILES | R (interprobe distance with ligand), steady-state measurements [1] [Å] | ΔR, steady-state measurements [1] [Å] | Kd [2] [µM] | Kd (CYP3A4(C64/C121) mutant) [µM] | Nh (Hill coefficient) (CYP3A4(C377/C468) mutant) | ΔF HS (amplitude of ligand-induced spin shift) (CYP3A4(C377/C468) mutant) [%] | Kd [4] [µM] | Kd (CYP3A4 (C64/C468 mutant)) [µM] | Kd [5] [nM] | Nh (Hill coefficient) (CYP3A4(C64/C468) mutant) | ΔF HS (amplitude of ligand-induced spin shift) (CYP3A4(C64/C468) mutant) [%] | other results |
| --- | --- | --- | --- | --- | --- | --- | --- | --- | --- | --- | --- | --- |
| OCCCCc1ccc2ccc3cccc4ccc1c2c34 [1-PB, 1-pyrenebutanol] | 43.4 ± 0.7 | 0.8 ± 0.7 | 9.5 ± 0.9 | 16 ± 8 | 1.2±0.2 | 29±9 | 14 ± 2 | 5.7 ± 1.7 | 5400 ± 2100 | 1.2±0.1 | 43±5 | E (LRET efficiency with ligand), steady-state measurements ([1]; 1-PB 40 µM, ANF 100 µM, BCT 2.5 µM, cholesterol 100 µM, testosterone 100 µM): 18 ± 1%; Nh (Hill coefficient) ([2]; W/T): 1.6±0.4; ΔF HS (amplitude of ligand-induced spin shift) ([2]; W/T): 50±1%; Nh (Hill coefficient) (CYP3A4(C64/C121) mutant; C64/C121): 1.3±0.5; ΔF HS (amplitude of ligand-induced spin shift) (CYP3A4(C64/C121) mutant; C64/C121): 17±10%; Nh (Hill coefficient) [3]: 1.3±0.1; ΔF HS (amplitude of ligand-induced spin shift) [3]: 18±2% |
| O=c1cc(-c2ccccc2)oc2c1ccc1ccccc12 [ANF, α-naphthoflavone] | 43.4 ± 0.1 | 1.1 ± 0.1 | 7.4 ± 1.6 | 8.6 ± 1.6 | 1.4±0.2 | 24±12 | 6.2 ± 1.2 | 5.1 ± 1.5 |  | 1.8±0.2 | 39±8 | Kd [6]: 17.3 ± 7.2 µM; Nh (Hill coefficient) ([2]; human, pH 7.4): 1.9±0.3; ΔF HS (amplitude of ligand-induced spin shift) ([2]; human, pH 7.4): 41±1%; Nh (Hill coefficient) (CYP3A4(C64/C121) mutant; human, pH 7.4): 1.3±0.4; ΔF HS (amplitude of ligand-induced spin shift) (CYP3A4(C64/C121) mutant; human, pH 7.4): 19±4%; Nh (Hill coefficient) [7]: 1.5±0.1; ΔF HS (amplitude of ligand-induced spin shift) [7]: 13±1%; Kd [8]: 4.2 ± 0.9 µM |
| CC(C)C[C@H]1C(=O)N2CCC[C@H]2[C@]2(O)O[C@](NC(=O)[C@@H]3C=C4c5cccc6[nH]c(Br)c(c56)C[C@H]4N(C)C3)(C(C)C)C(=O)N12 [Bromocriptine, Bromocriptine mesylate] | 43.6 ± 0.9 | 1.0 ± 0.9 |  |  |  |  | 0.96 ± 0.2 | 0.34 ± 0.1 | 280 ± 100 |  |  | Kd [9]: 930 ± 600 nM |
